Key:
[1] = Skin penetration, parallel artificial membrane permeability assay (skin-PAMPA); assay type: in vitro ADME
Protocol: To predict passive human skin permeability of compound of formula (I) a parallel artificial membrane permeability assay is performed that mimics the main barrier properties of human stratum corneum (skin-PAMPA).
The filter of the donor compartment of a hydrophobic PVDF 96-well microtiter filter plate (Millipore, Schwalbach, Germany) is coated with a mixture of 70% silicone and 30% isopropyl myristate dissolved in hexane. After evaporation of solvent the donor compartment is filled with buffer (pH 4) containing compound of formula (I) and assembled to the acceptor compartment filled with buffer (pH 4). The assembled plate is incubated at room temperature for 16 hours. Absorbance of compound of formula (I) in the dissembled acceptor compartment is measured with a photometer (Spectramax, Molecular Devices, Sunnyvale, Calif., USA). Permeation (% flux) of compound of formula (I) through the coated filter (artificial membrane) is calculated based on equilibrium absorbance.

[2] = tested on: neutrophil infiltration into the peritoneum; test: Thioglycollate-induced peritonitis in mice; assay type: in vivo
Protocol: The compound of formula (I) is investigated in a thioglycollate-induced peritonitis model in mice employing standard method (see A. E. R. Hicks et al., J. Leukoc. Biol. 2005, 77, 59-66; M. C. Montesinos et al., Arthritis Res. Ther. 2006, 8(2): R53-R59).
Groups of 10 male mice weighting 24±2 g are used. Peritonitis is induced by intraperitoneal (i.p.) injection of 1 ml 4% thioglycollate medium in 0.9% NaCl to cause neutrophil infiltration into the peritoneum. The compound of formula (I) is dissolved in DMSO, diluted with PBS (phosphate buffered saline) and adjusted to neutral pH with NaOH. The solution of the compound of formula (I) and vehicle is administered intravenously (i.v.) 15 minutes or by oral gavage (p.o.) 60 minutes before thioglycollate medium challenge. The steroid compound Dexamethasone (3 mg/kg, p.o.; known product for rheumatoid arthritis) as the positive control compound is administered by oral gavage 60 minutes before thioglycollate medium challenge.
After 4 hr of induction, neutrophil counts are determined by Automated Hematology Analyzer (provider: Sysmex, XT-2000i equipped with XT-2000iV software) in peritoneal lavage (3 ml PBS) harvested from animals sacrificed by CO2 asphyxiation.
Normal control groups are mock induced by i.p. injection of 0.9% NaCl Inhibition of 30% or more (≧30) in the neutrophil count relative to the vehicle control is considered significant and indicates possible anti-inflammatory activity.
The compound of formula (I) is administered i.v. in different doses, 25 mg/kg, 10 mg/kg, 5 mg/kg, 1 mg/kg, 0.5 mg/kg and 0.25 mg/kg. The compound of formula (I) is also administered p.o. in different doses, 500 mg/kg, 250 mg/kg, 100 mg/kg, 50 mg/kg, 25 mg/kg, 10 mg/kg, 5 mg/kg and 1 mg/kg.

[3] = tested on: human E-selectin-IgG chimera; test: Flow chamber assay, attachment of HL-60 cells to E-selectin; assay type: cell-based; design: dose or concentration left out as unconfirmed; settings: flow shear 1 dyne/cm^2; after 5 minutes continuous flow
Protocol: (§1) Flow Chamber Assay/Cell Adhesion and Rolling under Flow Conditions
(§2) To assess the capability of compound of formula (I) to inhibit cell binding under dynamic conditions resembling the flow in a blood vessel, flow chamber assays addressing/testing binding of HL-60 cells/various cell lines to P-selectin, and E-selectin chimeric molecules are performed.
(§3) Cell attachment under flow conditions is determined using a parallel flow chamber system. […]
(§4) After washing with assay buffer (“Roswell Park Memorial Institute 1640” (RPMI 1640)+10 mM HEPES) the dish is fitted into a parallel plate laminar flow chamber (sold from Glycotech, Rockville, Md.) and mounted on an inverted phase-contrast microscope (sold from Olympus, Hamburg, Germany) equipped with a CCD camera (JVC) that is connected to a PC. […] The flow rate is then decreased resulting in a calculated flow shear of 1 dyne/cm^2. Video sequences of 10 low power fields are digitally recorded after 5 minutes continuous flow. The percentage of inhibition is calculated from the mean number of cells per field that attached to the coated dish surface in the presence versus absence of compound of formula (I) of at independent experiments. […]

[4] = tested on: Jurkat T-cells (attachment to E-Selectin); test: Modulation of T-cells: flow chamber assay with pre-treated Jurkat cells, E-selectin; assay type: cell-based; settings: cells pre-incubated 5 minutes with compound, washed twice; flow chamber as Example 2
Protocol: (§5) Cell attachment under flow conditions is determined using a parallel flow chamber system. A 35 mm polystyrene culture dish is coated for 1 h at room temperature with coating buffer (50 mM tris-(hydroxymethyl) aminomethane buffer (Tris), 150 mM NaCl, 2 mM CaCl2; pH 7.4) containing human E- or P-selectin-IgG chimera at concentrations of […], respectively. After removal of the coating solution non specific binding sites are blocked for an additional hour with 1% BSA in coating buffer at room temperature.
as §4

[5] = tested on: human P-selectin-IgG chimera; test: Flow chamber assay, attachment of HL-60 cells to P-selectin; assay type: cell-based; design: dose or concentration left out as unconfirmed; settings: flow shear 1 dyne/cm^2; after 5 minutes continuous flow
Protocol: as §1, §2, §3, §4

[6] = tested on: Jurkat T-cells (attachment to P-Selectin); test: Modulation of T-cells: flow chamber assay with pre-treated Jurkat cells, P-selectin; assay type: cell-based; settings: cells pre-incubated 5 minutes with compound, washed twice; flow chamber as Example 2
Protocol: as §5, §4

[7] = target: T1, human L-Selectin-IgG-chimera (Homo sapiens, UniProt P14151); test: Sialyl Lewis^X Tyrosine Sulfate Assay (sLe^X TSA), L-selectin; settings: binding of L-selectin chimera to sLe^X-tyrosine sulfate polyacrylamide
T1 construct: fused on or other part: human IgG Fc part, fused on as a capture and dimerising handle (captured by goat anti human Fc antibody)
T1 sequence (P14151 39-318 limits assumed): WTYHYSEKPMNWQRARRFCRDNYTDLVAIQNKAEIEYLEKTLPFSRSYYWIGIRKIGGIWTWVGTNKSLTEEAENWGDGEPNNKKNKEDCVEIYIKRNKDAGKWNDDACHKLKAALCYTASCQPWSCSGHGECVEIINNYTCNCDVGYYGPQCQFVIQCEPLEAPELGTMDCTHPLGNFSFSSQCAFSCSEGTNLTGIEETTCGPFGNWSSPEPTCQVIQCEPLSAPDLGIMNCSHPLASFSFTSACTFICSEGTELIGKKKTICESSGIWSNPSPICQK
Protocol: Sialyl Lewis^X Tyrosine Sulfate Assay (sLe^X TSA):
Compound of formula (I) is assayed on a molecular level for the ability to inhibit the binding of P- and L-selectin chimeric molecules to sLe^X and tyrosinesulfate residues linked to a polymeric matrix as a PSGL-1 substitute. IC50-values are determined.
Microtiter plates are coated overnight in carbonate buffer pH9.6 with goat anti human Fc mAB (10 μg/ml). After washing in assay buffer (25 mM 4-(2-hydroxyethyl)-1-piperazineethanesulfonic acid (HEPES), 150 mM NaCl, 1 mM CaCl2 pH7.4) and blocking (3% bovine serum albumin (BSA) in assay buffer) plates are incubated for 2 h at 37° C. with human P-Selectin-IgG-chimera (0.61 nM respectively 150 ng/mL) or human L-Selectin-IgG-chimera (0.61 nM respectively 89 ng/mL). 5 μl of sLe^X-tyrosine sulfate polyacrylamide (1 mg/ml) carrying 15% sLe^X, 10% Tyrosine-sulfate and 5% biotin is complexed with 20 μl Streptavidin-Peroxidase solution (1 mg/ml) and 25 μl assay buffer without CaCl2. […]
After incubation for 2 h at 37° C., wells are washed for six times with in assay buffer incl. […] Bound sLe^X-Tyrosine sulfate ligand complex is determined by measuring optical density at 450 nm vs. 620 nm in a Fusion alpha-FP reader (sold from Packard Bioscience, Dreieich, Germany). […]

[8] = target: T2, human P-Selectin-IgG-chimera (Homo sapiens, UniProt P16109); test: Sialyl Lewis^X Tyrosine Sulfate Assay (sLe^X TSA), P-selectin; settings: binding of P-selectin chimera to sLe^X-tyrosine sulfate polyacrylamide
T2 construct: fused on or other part: human IgG Fc part, fused on as a capture and dimerising handle (captured by goat anti human Fc antibody)
T2 sequence (P16109 42-195 limits assumed): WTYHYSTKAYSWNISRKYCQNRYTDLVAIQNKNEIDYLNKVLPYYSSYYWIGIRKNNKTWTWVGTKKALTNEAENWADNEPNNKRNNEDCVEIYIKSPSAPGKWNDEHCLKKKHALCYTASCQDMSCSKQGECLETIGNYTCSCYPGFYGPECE
Protocol: IC50-values are determined.
Microtiter plates are coated overnight in carbonate buffer pH9.6 with goat anti human Fc mAB (10 μg/ml).
After incubation for 2 h at 37° C., wells are washed for six times with in assay buffer incl. 0.005% Polyoxyethylenesorbitan monolaurate (TWEEN 20), developed for 10-15 min with 20 μl 3,3′,5,5′-tetramethylbenzidine (TMB)/H202 substrate solution and stopped with 20 μl 1 M H2SO4.

Compound | Permeation (% flux) ([1]; 70% silicone / 30% isopropyl myristate membrane, pH 4, room temperature, 16 hours) | skin penetration (in words) ([1]; skin-penetration assay, Example 4) | inhibition of neutrophil influx compared with dexamethasone (3 mg/kg, p.o.) ([2]; depending on the dose) | inhibition of neutrophil influx (in words) ([2]; i.v. 0.25-25 mg/kg or p.o. 1-500 mg/kg, inhibition of 30% or more considered significant) | inhibition of neutrophil influx (inhibition rate) ([2]; i.v. and p.o. at different doses before thioglycollate, neutrophil count 4 hr after induction) | % inhibition of attachment of HL-60 cells, E-Selectin [3] | % inhibition of attachment of Jurkat cells (pre-treated), E-Selectin [4] | % inhibition of attachment of HL-60 cells, P-Selectin [5] | % inhibition of attachment of Jurkat cells (pre-treated), P-Selectin [6] | IC50 [7] | IC50 [8]
CCN(CC)C(=O)/C(C#N)=C/c1cc(O)c(O)c([N+](=O)[O-])c1 [compound of formula (I), (2E)-2-cyano-3-(3,4-dihydroxy-5-nitrophenyl)-N,N-diethylacrylamide] | >60% | high penetration | comparable or better | significant inhibition of neutrophil influx | more than 30% | 30% | 30% | 36% | 39% | 1250 µM | 189 µM
sialyl Lewis X [sLe^X] | – | – | – | – | – | – | – | – | – | > 3600 µM | –

Source: US20100190851A1, “Use of Entacapone in cosmetic, dermatological and pharmaceutical compositions” (priority 2007, published 2010)
